In ChEMBL document CHEMBL1201862, “PubChem BioAssay data set” (2004):
Active and inactive are the calls of the source.

Key:
[1] = target: T1, Runt-related transcription factor 1/Core-binding factor subunit beta (Homo sapiens, UniProt Q01196+Q13951); assay: disruptors of Runt domain/CBFb-SMMHC interaction – biochemical, FRET, Cerulean-Runt, Venus-CBFb-SMMHC, uHTS, […] (AID 1434); type: protein assay
[2] = target: T1, Runt-related transcription factor 1/Core-binding factor subunit beta; assay: Runt domain/CBFb-SMMHC interaction disruptors – biochemical, TR-FRET (AID 1438); type: protein assay
[3] = target: T2, Tyrosine-protein phosphatase non-receptor type 7 (Homo sapiens, UniProt P35236); assay: inhibition of hematopoietic tyrosine phosphatase HePTP – biochemical, set 2, SAR follow-up (AID 449736); type: functional
T2 sequence (P35236 whole entry): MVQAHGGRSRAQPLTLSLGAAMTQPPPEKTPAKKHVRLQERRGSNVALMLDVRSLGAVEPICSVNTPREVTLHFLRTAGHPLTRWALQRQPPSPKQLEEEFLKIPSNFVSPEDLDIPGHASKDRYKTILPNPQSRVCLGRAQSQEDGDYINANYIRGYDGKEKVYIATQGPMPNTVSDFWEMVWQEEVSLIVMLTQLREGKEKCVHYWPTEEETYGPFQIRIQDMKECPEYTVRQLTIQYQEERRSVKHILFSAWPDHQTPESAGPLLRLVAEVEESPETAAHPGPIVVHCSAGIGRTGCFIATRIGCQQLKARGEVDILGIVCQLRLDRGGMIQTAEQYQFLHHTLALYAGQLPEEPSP

[4] = target: T2, Tyrosine-protein phosphatase non-receptor type 7; type: functional
[5] = target: T3, Tyrosine-protein phosphatase non-receptor type 22 (Homo sapiens, UniProt Q9Y2R2); type: functional
T3 sequence (Q9Y2R2 whole entry): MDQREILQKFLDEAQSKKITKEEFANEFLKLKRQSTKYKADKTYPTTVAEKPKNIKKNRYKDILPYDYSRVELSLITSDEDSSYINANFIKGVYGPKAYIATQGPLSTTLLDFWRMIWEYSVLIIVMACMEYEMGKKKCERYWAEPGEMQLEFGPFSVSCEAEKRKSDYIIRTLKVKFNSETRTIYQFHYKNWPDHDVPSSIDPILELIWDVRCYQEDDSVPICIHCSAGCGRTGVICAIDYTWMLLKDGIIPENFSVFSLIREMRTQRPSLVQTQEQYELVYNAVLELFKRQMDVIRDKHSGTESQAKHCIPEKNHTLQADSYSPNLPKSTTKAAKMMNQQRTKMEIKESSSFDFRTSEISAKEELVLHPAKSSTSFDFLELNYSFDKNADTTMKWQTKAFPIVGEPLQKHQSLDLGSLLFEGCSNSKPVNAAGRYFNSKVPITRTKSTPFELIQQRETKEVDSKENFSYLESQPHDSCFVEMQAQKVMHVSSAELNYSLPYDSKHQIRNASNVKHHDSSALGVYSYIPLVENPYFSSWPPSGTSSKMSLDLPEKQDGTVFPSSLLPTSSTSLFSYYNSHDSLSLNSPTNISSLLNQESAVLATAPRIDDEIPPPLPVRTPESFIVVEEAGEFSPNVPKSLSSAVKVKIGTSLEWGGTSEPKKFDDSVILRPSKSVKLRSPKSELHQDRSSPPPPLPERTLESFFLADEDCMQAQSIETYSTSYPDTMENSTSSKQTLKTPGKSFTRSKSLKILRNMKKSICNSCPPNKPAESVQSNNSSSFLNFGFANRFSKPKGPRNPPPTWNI

[6] = target: T3, Tyrosine-protein phosphatase non-receptor type 22; type: functional; remark: listed apart in the source
[7] = toxicity toward cultured mammalian cells – cell-based, plate reader, cherry-pick samples, cytotoxicity control, dose response (AID 504397); type: functional
CAAX prenyl protease 2 = target: T4, CAAX prenyl protease 2 (Saccharomyces cerevisiae S288c, UniProt Q03530); type: biochemical
T4 sequence (Q03530 whole entry): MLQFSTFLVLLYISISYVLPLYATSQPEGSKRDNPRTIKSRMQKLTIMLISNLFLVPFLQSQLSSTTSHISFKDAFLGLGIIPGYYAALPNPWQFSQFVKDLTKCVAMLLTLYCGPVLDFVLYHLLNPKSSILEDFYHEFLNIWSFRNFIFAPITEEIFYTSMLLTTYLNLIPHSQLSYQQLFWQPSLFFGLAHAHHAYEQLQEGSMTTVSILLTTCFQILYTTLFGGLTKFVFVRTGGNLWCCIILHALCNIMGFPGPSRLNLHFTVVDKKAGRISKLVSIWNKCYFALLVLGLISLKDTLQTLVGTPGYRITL

[8] = target: T5, G-protein coupled receptor 35 (Homo sapiens, UniProt Q9HC97); assay: SAR analysis of Antagonists of the GPR35 Receptor using an Image-Based Assay - Set 6. [Related pubchem assays (depositor defined):AID2013, AID2026]; type: functional
T5 sequence (Q9HC97 whole entry): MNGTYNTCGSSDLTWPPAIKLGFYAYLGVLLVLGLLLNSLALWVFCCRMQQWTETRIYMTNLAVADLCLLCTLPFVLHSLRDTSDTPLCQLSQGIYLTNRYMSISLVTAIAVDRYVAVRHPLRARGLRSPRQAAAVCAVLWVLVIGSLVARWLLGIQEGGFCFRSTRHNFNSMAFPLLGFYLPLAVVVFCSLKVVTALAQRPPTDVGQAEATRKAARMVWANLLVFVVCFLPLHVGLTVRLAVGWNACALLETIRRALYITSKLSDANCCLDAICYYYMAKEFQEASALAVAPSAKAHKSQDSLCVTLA

[9] = target: T5, G-protein coupled receptor 35; assay: SAR analysis of Agonists of the GPR35 Receptor using an Image-Based Assay - Set 4. [Related pubchem assays (depositor defined):AID2013, AID2026]; type: functional
[10] = target: G-protein coupled receptor 55 (Homo sapiens, UniProt Q9Y2T6); assay: SAR Analysis of Selective Antagonists of GPR55 using an Image-Based Assay - Set 4. [Related pubchem assays (depositor defined):AID2013, AID2026]; type: functional;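 note: antagonism of response to 5 µM lysophosphatidylinositol agonist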
Chain of G-protein coupled receptor 55 (Q9Y2T6 whole entry): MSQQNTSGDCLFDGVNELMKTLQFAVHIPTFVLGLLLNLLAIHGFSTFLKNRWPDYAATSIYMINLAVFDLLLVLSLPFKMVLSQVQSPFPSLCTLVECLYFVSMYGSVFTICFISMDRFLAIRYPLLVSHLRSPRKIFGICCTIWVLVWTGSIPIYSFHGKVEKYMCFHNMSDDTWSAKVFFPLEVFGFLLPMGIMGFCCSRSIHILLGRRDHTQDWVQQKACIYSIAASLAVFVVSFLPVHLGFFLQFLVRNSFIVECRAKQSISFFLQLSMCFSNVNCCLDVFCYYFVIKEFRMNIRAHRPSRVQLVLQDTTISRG

Cannabinoid receptor 1 [11] = target: T6, Cannabinoid receptor 1 (Homo sapiens, UniProt P21554); assay: SAR analysis of agonists of the Cannabinoid Receptor 1 using an Image-Based Assay - Set 4. [Related pubchem assays (depositor defined):AID2013, AID2026]; type: functional
T6 sequence (P21554 whole entry): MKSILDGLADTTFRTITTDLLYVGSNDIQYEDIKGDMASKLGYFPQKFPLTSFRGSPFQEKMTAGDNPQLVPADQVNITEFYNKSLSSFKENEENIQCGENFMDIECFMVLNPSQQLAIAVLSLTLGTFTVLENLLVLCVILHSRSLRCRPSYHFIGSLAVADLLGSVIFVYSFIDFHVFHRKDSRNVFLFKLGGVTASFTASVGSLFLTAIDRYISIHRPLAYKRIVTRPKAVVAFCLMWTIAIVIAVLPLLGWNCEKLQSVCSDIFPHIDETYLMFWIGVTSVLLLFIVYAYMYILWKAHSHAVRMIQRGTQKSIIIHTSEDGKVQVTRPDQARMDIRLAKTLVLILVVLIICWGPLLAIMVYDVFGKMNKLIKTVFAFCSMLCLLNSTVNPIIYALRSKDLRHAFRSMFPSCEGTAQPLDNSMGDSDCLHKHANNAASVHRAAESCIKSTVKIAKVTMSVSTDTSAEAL

Cannabinoid receptor 2 [12] = target: T7, Cannabinoid receptor 2 (Homo sapiens, UniProt P34972); assay: SAR analysis of antagonists of the Cannabinoid Receptor 2 using an Image-Based Assay - Set 3. [Related pubchem assays (depositor defined):AID2013, AID2026]; type: functional
T7 sequence (P34972 whole entry): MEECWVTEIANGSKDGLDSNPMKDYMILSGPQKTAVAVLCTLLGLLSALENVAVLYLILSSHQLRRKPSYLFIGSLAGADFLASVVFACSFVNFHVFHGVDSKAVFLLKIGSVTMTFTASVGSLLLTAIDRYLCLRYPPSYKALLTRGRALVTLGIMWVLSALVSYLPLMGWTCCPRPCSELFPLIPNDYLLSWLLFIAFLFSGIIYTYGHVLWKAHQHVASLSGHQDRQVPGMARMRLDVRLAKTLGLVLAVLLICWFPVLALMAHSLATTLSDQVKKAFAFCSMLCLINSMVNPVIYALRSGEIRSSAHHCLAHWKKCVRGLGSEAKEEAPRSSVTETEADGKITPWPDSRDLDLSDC

Cannabinoid receptor 1 [13] = target: T6, Cannabinoid receptor 1; assay: SAR analysis of antagonists of the Cannabinoid Receptor 1 using an Image-Based Assay - Set 4. [Related pubchem assays (depositor defined):AID2013, AID2026]; type: functional
Cannabinoid receptor 2 [14] = target: T7, Cannabinoid receptor 2; assay: SAR analysis of agonists of the Cannabinoid Receptor 2 using an Image-Based Assay - Set 3. [Related pubchem assays (depositor defined):AID2013, AID2026]; type: functional
SUMO-activating enzyme = SUMO-activating enzyme (Homo sapiens, UniProt Q9UBT2); assay: blockers of UBC9-mediated SUMO conjugation – biochemical, AlphaScreen, SUMOylation inhibitor project, confirmation (AID 2018); type: functional
Chain of SUMO-activating enzyme (Q9UBE0 whole entry): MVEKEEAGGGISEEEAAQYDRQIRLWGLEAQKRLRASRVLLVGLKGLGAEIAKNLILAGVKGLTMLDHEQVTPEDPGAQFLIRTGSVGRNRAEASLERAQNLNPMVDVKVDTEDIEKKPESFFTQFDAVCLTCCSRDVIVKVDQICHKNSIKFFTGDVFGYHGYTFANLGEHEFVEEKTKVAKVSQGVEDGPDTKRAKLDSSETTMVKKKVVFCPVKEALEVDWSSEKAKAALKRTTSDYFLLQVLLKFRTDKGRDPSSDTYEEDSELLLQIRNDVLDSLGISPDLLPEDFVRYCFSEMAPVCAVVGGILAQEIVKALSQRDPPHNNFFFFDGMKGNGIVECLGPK
Chain of SUMO-activating enzyme (Q9UBT2 whole entry): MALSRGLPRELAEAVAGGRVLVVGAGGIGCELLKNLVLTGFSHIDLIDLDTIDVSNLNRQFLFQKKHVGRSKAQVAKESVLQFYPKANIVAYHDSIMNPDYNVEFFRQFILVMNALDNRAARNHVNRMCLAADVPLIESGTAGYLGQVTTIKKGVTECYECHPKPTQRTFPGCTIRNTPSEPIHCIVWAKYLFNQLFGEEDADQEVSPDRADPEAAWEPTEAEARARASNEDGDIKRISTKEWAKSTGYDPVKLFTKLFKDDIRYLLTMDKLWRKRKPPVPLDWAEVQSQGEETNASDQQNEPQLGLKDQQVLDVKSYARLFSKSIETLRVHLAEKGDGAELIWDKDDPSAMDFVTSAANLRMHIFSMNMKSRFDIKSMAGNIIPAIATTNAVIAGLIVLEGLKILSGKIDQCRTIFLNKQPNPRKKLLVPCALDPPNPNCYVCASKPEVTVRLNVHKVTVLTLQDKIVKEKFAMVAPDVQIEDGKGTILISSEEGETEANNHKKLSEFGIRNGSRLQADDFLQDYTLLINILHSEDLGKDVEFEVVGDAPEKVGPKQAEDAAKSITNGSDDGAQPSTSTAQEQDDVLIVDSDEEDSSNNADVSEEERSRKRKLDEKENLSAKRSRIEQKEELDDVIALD

[15] = target: T8, Corticotropin-releasing factor receptor 2/Corticotropin-releasing factor-binding protein (Homo sapiens, UniProt P24387+Q13324); assay: activators of CRF receptor 2 with binding protein – uHTS hits, confirmation (AID 602473); type: functional; conditions: read-out: EC50_Mean
T8 sequence (Q13324 whole entry): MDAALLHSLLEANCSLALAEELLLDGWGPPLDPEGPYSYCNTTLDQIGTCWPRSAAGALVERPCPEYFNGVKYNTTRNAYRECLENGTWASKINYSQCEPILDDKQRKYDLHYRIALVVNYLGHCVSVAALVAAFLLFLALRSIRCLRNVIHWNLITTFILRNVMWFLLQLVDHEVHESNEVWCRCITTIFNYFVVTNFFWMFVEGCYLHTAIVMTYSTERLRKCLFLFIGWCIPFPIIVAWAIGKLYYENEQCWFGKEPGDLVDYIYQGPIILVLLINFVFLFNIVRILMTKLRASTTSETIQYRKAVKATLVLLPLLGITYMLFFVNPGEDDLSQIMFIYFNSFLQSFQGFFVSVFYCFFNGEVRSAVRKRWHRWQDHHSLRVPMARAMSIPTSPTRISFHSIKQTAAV
T8 sequence (P24387 whole entry): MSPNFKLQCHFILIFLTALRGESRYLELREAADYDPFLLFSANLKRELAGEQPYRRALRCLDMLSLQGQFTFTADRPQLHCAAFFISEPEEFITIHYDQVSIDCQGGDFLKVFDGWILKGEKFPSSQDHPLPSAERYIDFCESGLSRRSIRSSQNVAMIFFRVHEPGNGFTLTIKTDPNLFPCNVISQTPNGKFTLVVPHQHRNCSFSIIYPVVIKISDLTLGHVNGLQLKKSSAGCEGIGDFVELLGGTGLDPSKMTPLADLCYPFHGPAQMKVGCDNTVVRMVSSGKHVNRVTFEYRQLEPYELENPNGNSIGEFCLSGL

[16] = target: T9, Carboxy-terminal domain RNA polymerase II polypeptide A small phosphatase 1 (Homo sapiens, UniProt Q9GZU7); assay: CTDSP1 inhibitors, concentration-response, biochemical, absorbance readout, ultra-high-throughput screen actives (AID 540297); type: functional
T9 sequence (Q9GZU7 whole entry): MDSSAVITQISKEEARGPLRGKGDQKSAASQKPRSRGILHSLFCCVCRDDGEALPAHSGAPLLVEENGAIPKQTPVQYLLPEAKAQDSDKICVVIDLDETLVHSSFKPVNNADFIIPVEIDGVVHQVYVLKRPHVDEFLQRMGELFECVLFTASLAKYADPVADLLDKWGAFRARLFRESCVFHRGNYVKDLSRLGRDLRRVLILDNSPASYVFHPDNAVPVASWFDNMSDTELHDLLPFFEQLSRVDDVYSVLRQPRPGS

[17] = target: T10, Dual specificity protein phosphatase 3 (Homo sapiens, UniProt P51452); assay: VHR1 phosphatase inhibitors, biochemical (AID 1878)
T10 sequence (P51452 whole entry): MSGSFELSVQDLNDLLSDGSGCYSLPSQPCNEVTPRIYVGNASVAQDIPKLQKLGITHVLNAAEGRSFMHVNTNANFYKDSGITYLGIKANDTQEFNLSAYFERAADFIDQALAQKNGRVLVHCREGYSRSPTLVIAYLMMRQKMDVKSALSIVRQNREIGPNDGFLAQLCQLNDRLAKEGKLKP

[18] = target: T11, Zinc finger protein mex-5 (Caenorhabditis elegans, UniProt Q9XUB2); assay: potency of MEX-5 RNA-binding blockers – biochemical, C. elegans, fluorescence polarization, dose response (AID 1960)
T11 sequence (Q9XUB2 whole entry): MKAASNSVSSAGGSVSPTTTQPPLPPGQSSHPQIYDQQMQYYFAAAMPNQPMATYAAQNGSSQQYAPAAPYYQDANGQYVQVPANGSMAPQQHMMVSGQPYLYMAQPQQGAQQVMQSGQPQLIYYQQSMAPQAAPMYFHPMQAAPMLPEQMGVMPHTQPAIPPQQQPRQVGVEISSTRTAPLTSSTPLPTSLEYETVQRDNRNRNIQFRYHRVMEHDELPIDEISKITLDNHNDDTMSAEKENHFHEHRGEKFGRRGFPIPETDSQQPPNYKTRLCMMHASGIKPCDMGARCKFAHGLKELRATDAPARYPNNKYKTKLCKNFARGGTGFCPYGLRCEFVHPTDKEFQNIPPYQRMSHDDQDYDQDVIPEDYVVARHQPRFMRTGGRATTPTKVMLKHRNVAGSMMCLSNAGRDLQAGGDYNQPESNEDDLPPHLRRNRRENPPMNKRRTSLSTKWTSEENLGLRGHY

[19] = target: T12, RNA-binding protein pos-1 (Caenorhabditis elegans, UniProt G5EF15); assay: disruptors of C. elegans POS-1 RNA interaction – biochemical, fluorescence polarization, dose response (AID 1964);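 note: purified POS-1 fused to maltose binding protein made in E. coli; potency of compounds blocking POS-1 binding to fluorescent RNA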
T12 sequence (G5EF15 whole entry): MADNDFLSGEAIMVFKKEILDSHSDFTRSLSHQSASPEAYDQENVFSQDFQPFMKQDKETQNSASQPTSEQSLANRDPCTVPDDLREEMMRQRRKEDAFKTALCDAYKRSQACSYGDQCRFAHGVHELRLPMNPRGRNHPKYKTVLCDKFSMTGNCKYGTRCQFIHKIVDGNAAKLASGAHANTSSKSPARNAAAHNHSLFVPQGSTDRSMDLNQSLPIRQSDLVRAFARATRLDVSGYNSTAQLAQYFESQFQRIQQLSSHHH

[20] = target: T10, Dual specificity protein phosphatase 3; assay: VHR1 phosphatase inhibitors, primary screen, biochemical, absorbance, uHTS (AID 1654)
[21] = target: T13, Dual specificity protein phosphatase 6 (Rattus norvegicus, UniProt Q64346); assay: inhibition of rat DUSP6 enzyme activity – biochemical, in vitro, primary screen (AID 425)
T13 sequence (Q64346 whole entry): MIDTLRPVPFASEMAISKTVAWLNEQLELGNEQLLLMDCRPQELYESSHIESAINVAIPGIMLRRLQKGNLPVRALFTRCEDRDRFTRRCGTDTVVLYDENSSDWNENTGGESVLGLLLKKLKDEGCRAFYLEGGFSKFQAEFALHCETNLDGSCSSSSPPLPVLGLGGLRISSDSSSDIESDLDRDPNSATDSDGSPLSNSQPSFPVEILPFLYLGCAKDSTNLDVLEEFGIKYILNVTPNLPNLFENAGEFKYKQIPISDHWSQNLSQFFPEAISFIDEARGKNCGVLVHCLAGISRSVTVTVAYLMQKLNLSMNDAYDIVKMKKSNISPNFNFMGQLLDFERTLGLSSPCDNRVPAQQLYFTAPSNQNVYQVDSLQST

T1 sequence (Q01196 whole entry, the tested form may be a part): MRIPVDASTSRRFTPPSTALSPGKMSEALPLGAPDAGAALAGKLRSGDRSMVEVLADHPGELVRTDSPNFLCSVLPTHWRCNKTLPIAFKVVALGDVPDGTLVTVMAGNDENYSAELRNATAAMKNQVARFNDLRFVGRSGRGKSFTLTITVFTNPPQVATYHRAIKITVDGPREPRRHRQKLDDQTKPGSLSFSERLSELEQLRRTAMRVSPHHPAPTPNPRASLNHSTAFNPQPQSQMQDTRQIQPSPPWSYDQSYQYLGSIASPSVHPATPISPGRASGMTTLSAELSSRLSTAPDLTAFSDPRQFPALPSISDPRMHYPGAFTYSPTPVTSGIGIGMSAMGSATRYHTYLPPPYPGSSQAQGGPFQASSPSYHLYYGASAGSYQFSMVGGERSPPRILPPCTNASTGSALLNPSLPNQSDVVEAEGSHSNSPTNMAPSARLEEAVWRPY
T1 sequence (Q13951 whole entry, the tested form may be a part): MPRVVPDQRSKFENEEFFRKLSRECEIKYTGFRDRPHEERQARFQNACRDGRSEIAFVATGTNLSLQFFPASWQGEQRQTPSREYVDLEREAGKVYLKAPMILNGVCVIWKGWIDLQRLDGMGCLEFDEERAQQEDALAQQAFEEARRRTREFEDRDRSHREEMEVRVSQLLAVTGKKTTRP

SMILES: C=CCOc1c(Br)cc(C2C3=C(CCCC3=O)N(C)C3=C2C(=O)CCC3)cc1OCC
- IC50 [1]: 0.865 µM (active)
- IC50 [2]: 41.2 µM (active)

SMILES: Cc1cccc(NC(=S)Nc2ccc(S(N)(=O)=O)cc2)c1
- IC50 [3]: > 100 µM (inactive)

SMILES: CCc1nc2cc([N+](=O)[O-])c([N+](=O)[O-])cc2[nH]1
- IC50 [4]: > 79.4 µM (inactive)
- IC50 [5]: > 79.4 µM (inactive)
- IC50 [6]: > 79.4 µM (inactive)

SMILES: COc1ccc(-c2cc(C(=O)N3CCN(c4ccccc4)CC3)c3ccccc3n2)cc1
- AC50 [7]: 57.4 µM (active)
- AC50 (CAAX prenyl protease 2): 4.71 µM (active)

SMILES: Cc1nc(N2CCN(C(=O)C3CC3)CC2)c2c3c(sc2n1)CC(C)CC3 (stereo not drawn)
- IC50 [8]: > 32 µM (inactive)
- EC50 [9]: > 32 µM (inactive)
- IC50 [10]: 10.6 µM (inactive)
- EC50 (Cannabinoid receptor 1 [11]): > 32 µM (inactive)
- IC50 (Cannabinoid receptor 2 [12]): > 32 µM (inactive)
- IC50 (Cannabinoid receptor 1 [13]): 17.9 µM (inactive)
- EC50 (Cannabinoid receptor 2 [14]): > 32 µM (inactive)

SMILES: O=C(Nc1nnc(-c2ccccc2)o1)c1nc2ccccc2s1
- IC50 (SUMO-activating enzyme): 16.3 µM (active)
- EC50 [15]: 7.07 µM (active)

SMILES: Cc1ccc(NC(=O)CN2C(=O)S/C(=C\c3cccn3-c3cccc(C(=O)O)c3)C2=O)cc1C
- IC50 [16]: 3.28 µM (active)
- IC50 [17]: 4.36 µM (active)
- EC50 [18]: > 300 µM (not active)
- EC50 [19]: > 300 µM (not active)
- IC50 [20]: 6.14 µM (active)
- IC50 [21]: 17.2 µM (active)
